assay: Antagonist activity at PAR4 in mouse washed platelets assessed as inhibition of gamma-PAR4 agonist peptide (AYPGKF-NH2)-induced platelet aggregation preincubated for 5 mins followed by peptide addition and measured after 5 mins by aggregometer

Structure (SMILES) | IC50
COc1cc(Cl)c2nc(-c3cc(C)cc4cncnc34)sc2c1 | 72 nM
COc1cc(Cl)c2nc(-c3cc(C)cc4cnc(C)nc34)sc2c1 | 64 nM
COc1cc(Cl)c2nc(-c3cc(C)cc4cnc(OC)nc34)sc2c1 | 32 nM
COc1cc(Cl)c2nc(-c3cc(C)cc4cnc(OC(F)F)nc34)sc2c1 | 87 nM
CCOc1ncc2cc(C)cc(-c3nc4c(Cl)cc(OC)cc4s3)c2n1 | 567 nM
COc1cc(Cl)c2nc(-c3cc(C)cc4cnc(OC(C)C)nc34)sc2c1 | 773 nM
COc1cc(Cl)c2nc(-c3cc(C)cc4cnc(OCC(C)C)nc34)sc2c1 | > 1000 nM
COc1cc(Cl)c2nc(-c3cc(C)cc4cnc(OC5CCCC5)nc34)sc2c1 | 986 nM
COCCOc1ncc2cc(C)cc(-c3nc4c(Cl)cc(OC)cc4s3)c2n1 | > 1000 nM
COCCCOc1ncc2cc(C)cc(-c3nc4c(Cl)cc(OC)cc4s3)c2n1 | 963 nM
COc1cc(Cl)c2nc(-c3cc(C)cc4cnc(SC)nc34)sc2c1 | 89 nM
CNc1ncc2cc(C)cc(-c3nc4c(Cl)cc(OC)cc4s3)c2n1 | 98 nM
COc1cc(Cl)c2nc(-c3cc(C)cc4cnc(N(C)C)nc34)sc2c1 | 105 nM
COc1cc(Cl)c2nc(-c3cc(C)cc4cnc(N5CCOCC5)nc34)sc2c1 | 220 nM
COc1cc(Cl)c2nc(-c3cc(C)cc4cnc(N5CCCCC5)nc34)sc2c1 | 335 nM
COc1cc(Cl)c2nc(-c3cc(C)cc4cnc(N5CCC6(CC5)OCCO6)nc34)sc2c1 | > 1000 nM
COc1cc(Cl)c2nc(-c3cc(C)cc4cnc(N5CC6(COC6)C5)nc34)sc2c1 | > 1000 nM
COc1ncc2cc(C)cc(-c3nc4ccccc4s3)c2n1 | 563 nM
COc1ncc2cc(C)cc(-c3nc4c(C)cc5c(c4s3)OCCO5)c2n1 | 117 nM
COc1ncc2cc(C)cc(-c3nc4c(Cl)cc(Cl)cc4s3)c2n1 | 356 nM
COc1ccc2nc(-c3cc(C)cc4cnc(OC)nc34)sc2c1 | 89 nM
COc1cc(F)c2nc(-c3cc(C)cc4cnc(OC)nc34)sc2c1 | 41 nM

Structure (SMILES) | IC50
COc1ncc2cc(C)cc(-c3nc4cc(F)c(OC)cc4s3)c2n1 | 30 nM
COc1cc(Cl)c2nc(-c3cc(C)cc4nc(OC)ncc34)sc2c1 | 46 nM
COc1cc(F)c2nc(-c3cc(C)cc4nc(OC)ncc34)sc2c1 | 80 nM
COc1ccc2nc(-c3cc(C)cc4nc(OC)ncc34)sc2c1 | 103 nM
COc1cc(OC)c2nc(-c3cc(C)cc4nc(OC)ncc34)sc2c1 | 223 nM
COc1ncc2c(-c3nc4ccccc4s3)cc(C)cc2n1 | 368 nM
COc1cc(C)c2nc(-c3cc(C)cc4nc(OC)ncc34)sc2c1 | 163 nM
COc1ncc2c(-c3nc4cc(F)c(OC)cc4s3)cc(C)cc2n1 | 21 nM
COc1ncc2c(-c3nc4cc(F)c(OCCO)cc4s3)cc(C)cc2n1 | 27 nM
CCOc1ncc2c(-c3nc4c(Cl)cc(OC)cc4s3)cc(C)cc2n1 | 223 nM
CCOc1ncc2c(-c3nc4c(F)cc(OC)cc4s3)cc(C)cc2n1 | 274 nM
CCOc1ncc2c(-c3nc4cc(F)c(OC)cc4s3)cc(C)cc2n1 | 369 nM
COc1cc(Cl)c2nc(-c3cc(C)cc4nc(OC(C)C)ncc34)sc2c1 | 456 nM
COc1ccc2nc(-c3cc(C)cc4nc(OC(C)C)ncc34)sc2c1 | 362 nM
COCOc1ncc2c(-c3nc4c(Cl)cc(OC)cc4s3)cc(C)cc2n1 | 45 nM
COCOc1ncc2c(-c3nc4c(F)cc(OC)cc4s3)cc(C)cc2n1 | 89 nM
COCOc1ncc2c(-c3nc4cc(F)c(OC)cc4s3)cc(C)cc2n1 | 25 nM
COCOc1ncc2c(-c3nc4ccc(OC)cc4s3)cc(C)cc2n1 | 109 nM
CNc1ncc2c(-c3nc4c(Cl)cc(OC)cc4s3)cc(C)cc2n1 | 223 nM
COc1cc(Cl)c2nc(-c3cc(C)cc4nc(SC)ncc34)sc2c1 | 136 nM
COc1cc2sc(-c3cc(C)cc4nc(SC)ncc34)nc2cc1F | 96 nM
COc1ccc2nc(-c3cc(C)cc4nc(SC)ncc34)sc2c1 | 223 nM

Structure (SMILES) | IC50
COc1cc(OC)c2nc(-c3cc(C)cc4nc(SC)ncc34)sc2c1 | > 1000 nM
COCc1ncc2c(-c3nc4cc(F)c(OCCOC(=O)Nc5cccc(C#N)c5)cc4s3)cc(C)cc2n1 | 69 nM
COCc1ncc2c(-c3nc4cc(F)c(OCCOC(=O)Nc5cc(F)cc(C#N)c5)cc4s3)cc(C)cc2n1 | 19 nM
COCc1ncc2c(-c3nc4cc(F)c(OCCOC(=O)Nc5ccc(C(=O)N6CCOCC6)cc5)cc4s3)cc(C)cc2n1 | 89 nM
COCc1ncc2c(-c3nc4cc(F)c(OCCOC(=O)N5CCOCC5)cc4s3)cc(C)cc2n1 | 756 nM
COCc1ncc2c(-c3nc4cc(F)c(OCCOC(=O)OC)cc4s3)cc(C)cc2n1 | 643 nM
COc1ncc2c(-c3nc4cc(F)c5c(c4s3)C[C@H](COC(=O)Nc3cccc(C#N)c3)O5)cc(C)cc2n1 | 15 nM
COc1ncc2c(-c3nc4cc(F)c5c(c4s3)C[C@H](COC(=O)Nc3cc(F)cc(C#N)c3)O5)cc(C)cc2n1 | 8.6 nM
COc1ncc2c(-c3nc4cc(F)c5c(c4s3)C[C@H](COC(=O)Nc3ccc(OC)c(F)c3)O5)cc(C)cc2n1 | 169 nM
COc1ccc(NC(=O)OC[C@H]2Cc3c(c(F)cc4nc(-c5cc(C)cc6nc(OC)ncc56)sc34)O2)c(C)c1 | 187 nM
COc1ccc(NC(=O)OC[C@H]2Cc3c(c(F)cc4nc(-c5cc(C)cc6nc(OC)ncc56)sc34)O2)cc1 | 96 nM
COc1ncc2c(-c3nc4cc(F)c5c(c4s3)C[C@H](COC(=O)Nc3ccc(C)cc3)O5)cc(C)cc2n1 | 73 nM
COc1ncc2c(-c3nc4cc(F)c5c(c4s3)C[C@H](COC(=O)Nc3ccc(C)cc3F)O5)cc(C)cc2n1 | 51 nM
COc1ccc(NC(=O)OC[C@H]2Cc3c(c(F)cc4nc(-c5cc(C)cc6nc(OC)ncc56)sc34)O2)cn1 | 356 nM
COc1ncc2c(-c3nc4cc(F)c5c(c4s3)C[C@H](COC(=O)Nc3cnc(C)nc3)O5)cc(C)cc2n1 | 689 nM
COc1ncc2c(-c3nc4cc(F)c5c(c4s3)C[C@H](COC(=O)Nc3ccc(C(=O)N4CCOCC4)cc3)O5)cc(C)cc2n1 | 417 nM
COc1ncc2c(-c3nc4cc(F)c5c(c4s3)C[C@H](COC(=O)N3CCOCC3)O5)cc(C)cc2n1 | 168 nM
COC(=O)OC[C@H]1Cc2c(c(F)cc3nc(-c4cc(C)cc5nc(OC)ncc45)sc23)O1 | 535 nM
COc1ncc2c(-c3nc4cc(F)c5c(c4s3)C[C@@H](COC(=O)Nc3ccc(C(=O)N4CCOCC4)cc3)O5)cc(C)cc2n1 | 165 nM
COc1ncc2c(-c3nc4cc(F)c5c(c4s3)C[C@@H](COC(=O)Nc3cc(F)cc(C#N)c3)O5)cc(C)cc2n1 | 109 nM
COc1ncc2c(-c3nc4cc(F)c5c(c4s3)C[C@@H](COC(=O)N3CCOCC3)O5)cc(C)cc2n1 | 304 nM

assay: Antagonist activity at PAR4 in human platelet rich plasma assessed as inhibition of gamma-PAR4 agonist peptide (AYPGKF-NH2)-induced platelet aggregation preincubated for 5 mins followed by peptide addition and measured after 5 mins by aggregometer

Structure (SMILES) | IC50
COCc1ncc2c(-c3nc4cc(F)c(OCCOC(=O)Nc5cc(F)cc(C#N)c5)cc4s3)cc(C)cc2n1 | 9.5 nM
COc1ncc2c(-c3nc4cc(F)c5c(c4s3)C[C@H](COC(=O)Nc3cccc(C#N)c3)O5)cc(C)cc2n1 | 6.4 nM
COc1ncc2c(-c3nc4cc(F)c5c(c4s3)C[C@H](COC(=O)Nc3cc(F)cc(C#N)c3)O5)cc(C)cc2n1 | 3.5 nM
